Source: patent US20260250325A1, “Antiviral Polypeptide Membrane Fusion Inhibitor, and Preparation Method and Application Thereof” (priority 2025, published 2026)
Where a SMILES comes first, the peptide text is derived from it. The star is where a group is joined. X1 = CC(C)CCCC(C)C1CCC2C3CC=C4CC(OC(=O)CCC(=O)*)CCC4(C)C3CCC12C

Key:
[1] = tested on: RSV A long virus strain; type: cell-based; settings: RSV A long virus strain, HEp-2 cells, plaque reduction, 1 day; read-out: IC50
Outline: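 HEp-2 cells (30000/well) infected with 100 PFU virus premixed 1 h with compound (8 concentrations, duplicate); after 2 h adsorption, cultured 1 day at 37 °C under 0.8% CMC overlay with compound. Plaques immunostained (RSV antibody, TrueBlue) and counted; IC50 and CC50 by non-linear fitting of % inhibition versus virus and cell controls.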

[2] = Cytotoxicity test in HEp-2 cells (CCK8 cell viability); type: cell-based; settings: human; HEp-2 cells, CCK8, 1 day; read-out: CC50
Outline: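 HEp-2 cells seeded at 30,000/well, cultured overnight at 37° C./5% CO2, then exposed to diluted compound for 1 day in 0.5% DMSO. Viability read by CCK8, normalised to untreated-cell and medium-only controls; CC50 from four-parameter variable-slope fit.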

Compound | IC50 [1] [µM] | CC50 at 1 day [2] [µM]
CC[C@H](C)[C@H](NC(C)=O)C(=O)N[C@@H](CC(C)C)C(=O)N[C@@H](CCC(=O)O)C(=O)N[C@@H](CC(C)C)C(=O)N[C@H](C(=O)N[C@@H](CC(N)=O)C(=O)N[C@@H](CCCCN)C(=O)N[C@@H](CCCCN)C(=O)N[C@H](C(=O)N[C@@H](CCC(=O)O)C(=O)N[C@@H](CCC(N)=O)C(=O)N[C@@H](CO)C(=O)N[C@@H](CC(C)C)C(=O)N[C@@H](CCCCN)C(=O)N[C@@H](Cc1ccccc1)C(=O)N[C@H](C(=O)N[C@@H](CCC(=O)O)C(=O)N[C@@H](CCCCN)C(=O)N[C@@H](CO)C(=O)N[C@@H](CC(=O)O)C(=O)N[C@@H](CCCCN)C(=O)N[C@@H](CC(C)C)C(=O)N[C@@H](CC(C)C)C(=O)N[C@@H](CCC(=O)O)C(=O)N[C@@H](CC(N)=O)C(=O)N[C@@H](CCC(=O)O)C(=O)N[C@@H](C)C(=O)N[C@@H](C)C(=O)N[C@@H](C)C(=O)N[C@@H](CCCCN)C(=O)N[C@@H](CCCCNC(=O)CCC(=O)OC1CCC2(C)C(=CCC3C2CCC2(C)C(C(C)CCCC(C)C)CCC32)C1)C(N)=O)[C@@H](C)CC)[C@@H](C)CC)C(C)C (stereo partly shown) [Compound 32] (Ac-ILELVNKKIEQSLKFIEKSDKLLENEAAAKK(X1)-NH2) | 0.296 | > 8
CC[C@H](C)[C@H](NC(=O)[C@H](CCCCN)NC(=O)[C@H](CCCCN)NC(=O)[C@H](CC(N)=O)NC(=O)[C@@H](NC(=O)[C@H](CCC(N)=O)NC(=O)[C@H](CCC(=O)O)NC(=O)[C@H](CC(C)C)NC(=O)[C@H](CO)NC(C)=O)C(C)C)C(=O)N[C@@H](CC(N)=O)C(=O)N[C@@H](CCC(N)=O)C(=O)N[C@@H](CO)C(=O)N[C@@H](CC(C)C)C(=O)N[C@@H](CCCCN)C(=O)N[C@H](C(=O)N[C@@H](CC(N)=O)C(=O)N[C@@H](CCCCN)C(=O)N[C@@H](CCCCN)C(=O)N[C@@H](CO)C(=O)N[C@@H](CC(=O)O)C(=O)N[C@@H](CCCCN)C(=O)N[C@@H](CC(C)C)C(=O)N[C@@H](CC(C)C)C(=O)N[C@@H](CCC(=O)O)C(=O)N[C@@H](CC(N)=O)C(=O)N[C@@H](CCC(=O)O)C(=O)N[C@@H](C)C(=O)N[C@@H](C)C(=O)N[C@@H](C)C(=O)N[C@@H](CCCCN)C(=O)N[C@@H](CCCCNC(=O)CCC(=O)OC1CCC2(C)C(=CCC3C2CCC2(C)C(C(C)CCCC(C)C)CCC32)C1)C(N)=O)C(C)C (stereo partly shown) [Compound 33] (Ac-SLEQVNKKINQSLKVNKKSDKLLENEAAAKK(X1)-NH2) | 5.04 | > 8
CC[C@H](C)[C@H](NC(=O)[C@H](CCC(=O)O)NC(=O)[C@H](CCC(=O)O)NC(=O)[C@H](CC(C)C)NC(=O)[C@H](CO)NC(=O)[C@H](CCC(N)=O)NC(=O)[C@H](CC(N)=O)NC(=O)[C@@H](NC(=O)[C@H](CCCCN)NC(=O)[C@H](CC(C)C)NC(=O)[C@H](CO)NC(=O)[C@H](CCC(N)=O)NC(=O)[C@H](CCC(=O)O)NC(=O)[C@@H](NC(=O)[C@H](CCCCN)NC(=O)[C@H](CCCCN)NC(=O)[C@H](CC(N)=O)NC(=O)[C@@H](NC(=O)[C@H](CCC(=O)O)NC(=O)[C@H](CCC(=O)O)NC(=O)[C@H](CC(=O)O)NC(=O)[C@H](Cc1ccccc1)NC(C)=O)C(C)C)[C@@H](C)CC)[C@@H](C)CC)C(=O)N[C@@H](CCCNC(=N)N)C(=O)N[C@@H](CCCCN)C(=O)N[C@@H](CO)C(=O)N[C@@H](CCC(=O)O)C(=O)N[C@@H](C)C(=O)N[C@@H](C)C(=O)N[C@@H](C)C(=O)N[C@@H](CCCCN)C(=O)N[C@@H](CCCCNC(=O)CCC(=O)OC1CCC2(C)C(=CCC3C2CCC2(C)C(C(C)CCCC(C)C)CCC32)C1)C(N)=O (stereo partly shown) [Compound 34] (Ac-FDEEVNKKIEQSLKINQSLEEIRKSEAAAKK(X1)-NH2) | > 2 | 1.5
CC[C@H](C)[C@H](NC(=O)[C@H](CO)NC(C)=O)C(=O)N[C@@H](CO)C(=O)N[C@@H](CCC(N)=O)C(=O)N[C@H](C(=O)N[C@@H](CC(N)=O)C(=O)N[C@@H](CCC(=O)O)C(=O)N[C@@H](CCCCN)C(=O)N[C@H](C(=O)N[C@@H](CC(N)=O)C(=O)N[C@@H](CCC(=O)O)C(=O)N[C@H](C(=O)N[C@@H](CCC(N)=O)C(=O)N[C@@H](CO)C(=O)N[C@@H](CC(C)C)C(=O)N[C@@H](CCC(=O)O)C(=O)N[C@@H](CCC(=O)O)C(=O)N[C@@H](CCCCN)C(=O)N[C@@H](CO)C(=O)N[C@@H](CC(=O)O)C(=O)N[C@@H](CCCCN)C(=O)N[C@@H](CC(C)C)C(=O)N[C@@H](CC(C)C)C(=O)N[C@@H](CCCCN)C(=O)N[C@@H](CO)C(=O)N[C@@H](CCC(=O)O)C(=O)N[C@@H](C)C(=O)N[C@@H](C)C(=O)N[C@@H](C)C(=O)N[C@@H](CCCCN)C(=O)N[C@@H](CCCCNC(=O)CCC(=O)OC1CCC2(C)C(=CCC3C2CCC2(C)C(C(C)CCCC(C)C)CCC32)C1)C(N)=O)[C@@H](C)CC)[C@@H](C)CC)C(C)C (stereo partly shown) [Compound 35] (Ac-SISQVNEKINEIQSLEEKSDKLLKSEAAAKK(X1)-NH2) | 5.53 | 5.1
CC[C@H](C)[C@H](NC(=O)[C@H](CCCCN)NC(=O)[C@H](CC(=O)O)NC(=O)[C@H](CO)NC(=O)[C@H](CCC(N)=O)NC(=O)[C@H](CCCCN)NC(=O)[C@H](CCCCN)NC(=O)[C@H](CC(C)C)NC(=O)[C@H](CO)NC(=O)[C@H](CCC(N)=O)NC(=O)[C@H](CCCCN)NC(=O)[C@H](CCC(=O)O)NC(=O)[C@H](CCC(=O)O)NC(=O)[C@H](CCC(=O)O)NC(=O)[C@@H](NC(=O)[C@H](CCCCN)NC(=O)[C@H](CCCCN)NC(=O)[C@H](CC(N)=O)NC(=O)[C@@H](NC(C)=O)C(C)C)[C@@H](C)CC)C(=O)N[C@@H](CCC(=O)O)C(=O)N[C@@H](CCC(=O)O)C(=O)N[C@@H](CO)C(=O)N[C@@H](CC(=O)O)C(=O)N[C@@H](CCC(=O)O)C(=O)N[C@@H](CC(N)=O)C(=O)N[C@@H](CCC(=O)O)C(=O)N[C@@H](C)C(=O)N[C@@H](C)C(=O)N[C@@H](C)C(=O)N[C@@H](CCCCN)C(=O)N[C@@H](CCCCNC(=O)CCC(=O)OC1CCC2(C)C(=CCC3C2CCC2(C)C(C(C)CCCC(C)C)CCC32)C1)C(N)=O (stereo partly shown) [Compound 36] (Ac-VNKKIEEEKQSLKKQSDKIEESDENEAAAKK(X1)-NH2) | 6.82 | > 8
CC[C@H](C)[C@H](NC(=O)[C@H](CCCCN)NC(=O)[C@H](CCCCN)NC(=O)[C@H](CC(N)=O)NC(=O)[C@@H](NC(=O)[C@H](CC(C)C)NC(=O)[C@H](CCC(=O)O)NC(=O)[C@H](CC(=O)O)NC(=O)[C@H](Cc1ccccc1)NC(C)=O)C(C)C)C(=O)N[C@@H](CCC(=O)O)C(=O)N[C@@H](CCCCN)C(=O)N[C@H](C(=O)N[C@@H](CCC(=O)O)C(=O)N[C@@H](CCC(=O)O)C(=O)N[C@H](C(=O)N[C@@H](CC(N)=O)C(=O)N[C@@H](CCCCN)C(=O)N[C@@H](CCCCN)C(=O)N[C@@H](CO)C(=O)N[C@@H](CC(C)C)C(=O)N[C@@H](CCCCN)C(=O)N[C@@H](CC(C)C)C(=O)N[C@@H](CC(C)C)C(=O)N[C@@H](CCC(=O)O)C(=O)N[C@@H](CO)C(=O)N[C@@H](CCC(=O)O)C(=O)N[C@@H](C)C(=O)N[C@@H](C)C(=O)N[C@@H](C)C(=O)N[C@@H](CCCCN)C(=O)N[C@@H](CCCCNC(=O)CCC(=O)OC1CCC2(C)C(=CCC3C2CCC2(C)C(C(C)CCCC(C)C)CCC32)C1)C(N)=O)C(C)C)[C@@H](C)CC (stereo partly shown) [Compound 37] (Ac-FDELVNKKIEKIEEVNKKSLKLLESEAAAKK(X1)-NH2) | 5.23 | 4
CC[C@H](C)[C@H](NC(=O)[C@H](CO)NC(=O)[C@H](C)NC(=O)[C@H](CC(=O)O)NC(=O)[C@H](Cc1ccccc1)NC(=O)[C@H](CCC(=O)O)NC(=O)[C@H](CC(=O)O)NC(=O)[C@H](Cc1c[nH]c2ccccc12)NC(C)=O)C(=O)N[C@@H](CO)C(=O)N[C@@H](CCC(N)=O)C(=O)N[C@@H](CC(N)=O)C(=O)N[C@@H](CCC(=O)O)C(=O)N[C@@H](CCCCN)C(=O)N[C@H](C(=O)N[C@@H](CC(N)=O)C(=O)N[C@@H](CCC(N)=O)C(=O)N[C@@H](CO)C(=O)N[C@@H](CC(C)C)C(=O)N[C@@H](CCC(=O)O)C(=O)N[C@@H](CCC(=O)O)C(=O)N[C@H](C(=O)N[C@@H](CCCNC(=N)N)C(=O)N[C@@H](CCCCN)C(=O)N[C@@H](CO)C(=O)N[C@@H](CC(=O)O)C(=O)N[C@@H](CCC(=O)O)C(=O)N[C@@H](CC(C)C)C(=O)N[C@@H](CC(C)C)C(=O)N[C@@H](Cc1c[nH]cn1)C(=O)N[C@@H](CC(N)=O)C(=O)N[C@@H](CC(N)=O)C(=O)N[C@@H](C)C(=O)N[C@@H](CC(C)C)C(=O)N[C@@H](CCC(=O)O)C(=O)N[C@@H](C)C(=O)N[C@@H](C)C(=O)N[C@@H](C)C(=O)N[C@@H](CCCCN)C(=O)N[C@@H](CCCCNC(=O)CCC(=O)OC1CCC2(C)C(=CCC3C2CCC2(C)C(C(C)CCCC(C)C)CCC32)C1)C(N)=O)[C@@H](C)CC)[C@@H](C)CC (stereo partly shown) [Compound 39] (Ac-WDEFDASISQNEKINQSLEEIRKSDELLHNNALEAAAKK(X1)-NH2) | 0.113 | > 100
CC[C@H](C)[C@H](NC(=O)[C@H](CCCNC(=N)N)NC(=O)[C@H](CCCNC(=N)N)NC(=O)[C@H](CCCNC(=N)N)NC(=O)[C@H](CC(N)=O)NC(=O)[C@@H](NC(=O)[C@H](CCC(=O)O)NC(=O)[C@H](Cc1ccccc1)NC(C)=O)C(C)C)C(=O)N[C@@H](CCC(=O)O)C(=O)N[C@@H](CCC(N)=O)C(=O)N[C@@H](CO)C(=O)N[C@@H](CC(C)C)C(=O)N[C@@H](CCC(=O)O)C(=O)N[C@@H](CCCCN)C(=O)N[C@@H](CO)C(=O)N[C@@H](CC(C)C)C(=O)N[C@@H](CCC(=O)O)C(=O)N[C@@H](CO)C(=O)N[C@@H](CC(C)C)C(=O)N[C@@H](CCC(=O)O)C(=O)N[C@@H](CCC(=O)O)C(=O)N[C@@H](CCC(=O)O)C(=O)N[C@@H](CCC(=O)O)C(=O)N[C@@H](Cc1c[nH]cn1)C(=O)N[C@@H](CO)C(=O)N[C@@H](CC(=O)O)C(=O)N[C@@H](CCCCN)C(=O)N[C@@H](CCCCN)C(=O)N[C@@H](CC(C)C)C(=O)N[C@@H](Cc1c[nH]cn1)C(=O)N[C@@H](CC(N)=O)C(=O)N[C@@H](CCC(=O)O)C(=O)N[C@@H](CC(C)C)C(=O)N[C@@H](Cc1c[nH]cn1)C(N)=O [Compound 46] (Ac-FEVNRRRIEQSLEKSLESLEEEEHSDKKLHNELH-NH2) | > 8 | > 8
